Consider nine compounds from patent US20170304388A1, “NEW INDICATION OF CARDIOVASCULAR DRUGS FOR PREPARATION OF CANCER INHIBITION PHARMACEUTICAL COMPOSITION” (LAUNX BIOMEDICAL CO., LTD., priority 2014, published 2017).

Type in all cases: cell-based
The subject of data set [1] is LoVo (Colorectal Adenocarcinoma). Kind of data set: Cell viability analysis (WST-1), LoVo. As to conditions: WST-1, OD450 nm; for viability at 10 µM: Homo sapiens, LoVo, 72 h, Table 3, drug 10 μM, read-out: survival rate (viability) of cancer cells, LoVo. (Tetrazolium dyes change colour on reduction, which living cells bring about.)
For data set [2], the system named is A375 (Amelanotic Melanoma). Kind of data set: Cell viability analysis (WST-1), A375. Conditions: WST-1, OD450 nm, lower viability = better inhibition; for viability at 10 µM: Homo sapiens, A-375, 72 h, Table 3, drug 10 μM, read-out: survival rate (viability) of cancer cells, A375.
The subject of data set [3] is A549 (Lung Adenocarcinoma). Kind of data set: Cell viability analysis (WST-1), A549. As to conditions: WST-1, OD450 nm; for viability at 10 µM: Homo sapiens, A549, 72 h, Table 3, drug 10 μM, read-out: survival rate (viability) of cancer cells, A549.
The subject of data set [4] is HeLa (Cervix Adenocarcinoma). Kind of data set: Cell viability analysis (WST-1), HeLa. As to conditions: WST-1, OD450 nm; for viability at 10 µM: Homo sapiens, HeLa, 72 h, Table 3, drug 10 μM, read-out: survival rate (viability) of cancer cells, HeLa.
The subject of data set [5] is H1650 (Lung Adenocarcinoma). Kind of data set: Cell viability analysis (WST-1), H1650. Conditions: WST-1, OD450 nm; for viability at 10 µM: Homo sapiens, NCI-H1650, 72 h, Table 3, drug 10 μM, read-out: survival rate (viability) of cancer cells, H1650.
Data set [6] concerns HCT116 (Colorectal Carcinoma). Kind of data set: Cell viability analysis (WST-1), HCT116. As to conditions: WST-1, OD450 nm; for viability at 10 µM: Homo sapiens, HCT-116, 72 h, Table 3, drug 10 μM, read-out: survival rate (viability) of cancer cells, HCT116 (WT).
Another data set deals with cancer cell lines. The experiment in a line: Growth inhibitory effects on the panel of cancer cell lines. Conditions: drug 10 μM, 72 hours; for Numbers of inhibitory effect on cancer cell line: count of cancer cell lines inhibited; for inhibition effect on different cancer cell lines (in words): WST-1.
Data set [7] has as its system HepG2 (Hepatocellular Carcinoma). The experiment in a line: Cell viability analysis (WST-1), HepG2. Conditions: WST-1, OD450 nm; for viability at 10 µM: Homo sapiens, HepG2, 72 h, Table 3, drug 10 μM, read-out: survival rate (viability) of cancer cells, HepG2.
Data set [8] relates to TSGH-8301 (Urinary Bladder Carcinoma). The experiment in a line: Cell viability analysis (WST-1), TSGH-8301. As to conditions: WST-1, OD450 nm; for viability at 10 µM: 72 h, Table 3, drug 10 μM, read-out: survival rate (viability) of cancer cells, TSGH.
In data set [9] the test system is MCF7 (Mammary Gland, Adenocarcinoma). Kind of data set: Cell viability analysis (WST-1), MCF7. Conditions: WST-1, OD450 nm; for viability at 10 µM: Homo sapiens, MCF7, 72 h, Table 3, drug 10 μM, read-out: survival rate (viability) of cancer cells, MCF7.
The subject of data set [10] is AGS (Gastric Adenocarcinoma). The experiment in a line: Cell viability analysis (WST-1), AGS. As to conditions: WST-1, OD450 nm; for viability at 10 µM: 72 h, Table 3, drug 10 μM, read-out: survival rate (viability) of cancer cells, AGS.
In data set [11] the test system is HL-60 (Acute Promyelocytic Leukemia). Kind of data set: Cell viability analysis (WST-1), HL-60. As to conditions: Table 3, drug 10 μM, 72 hours, WST-1, OD450 nm; for viability at 10 µM: Homo sapiens, HL-60, read-out: survival rate (viability) of cancer cells, HL-60.
The test system of data set [12] is PC3 (Prostate Adenocarcinoma). The experiment in a line: Cell viability analysis (WST-1), PC3. Conditions: WST-1, OD450 nm; for viability at 10 µM: 72 h, Table 3, drug 10 μM, read-out: survival rate (viability) of cancer cells, PC3.
For data set [13], the system named is MKN-45 (Gastric Adenocarcinoma). Kind of data set: Cell viability analysis (WST-1), MKN-45. Conditions: WST-1, OD450 nm; for viability at 10 µM: Homo sapiens, MKN-45, 72 h, Table 3, drug 10 μM, read-out: survival rate (viability) of cancer cells, MKN-45.

Structures can show the parent of a compound that is named as a salt.

In general, viability refers to a read-out of living cells in per cent, often relative to untreated cells. Consider `CCN(CC)CCOC(=O)C(c1ccccc1)c1ccccc1` [Adiphenine HCl], for which the viability at 10 µM was 95.7% in [1]; 87.6% in data set [2]; 86.8% in [3]; 96.4% in data set [4]; 119% in data set [5]; 134% in [6]. Moreover, the viability at 10 µM in data set [7] was 95.5%; in data set [8], 82%; in [9], 103%; in data set [10] it was 109%; in data set [11] it was 105%; in data set [12], 102%. Further, in data set [13], the viability at 10 µM stood at 95.7%. In the data set with cancer cell lines, the “Numbers of inhibitory effect on cancer cell line” value (“Numbers of inhibitory effect” for short) turned out to be 0. Moreover, in the data set on cancer cell lines, the “inhibition effect on different cancer cell lines (in words)” value was “significant inhibition effect”.
Consider `CC(C)NCC(O)COc1ccc(COCCOC(C)C)cc1` (centres unmarked) [Bisoprolol], for which the viability at 10 µM in [1] is 119%; in data set [2] it was 117%; in data set [3], 124%; in [4] it was 111%; in data set [5], 80.7%; in [6] it was 118%. Further, the viability at 10 µM in data set [7] amounted to 108%; in data set [8], 87.5%; in [9], 112%; in data set [10] it was 80.3%; in data set [11], 85.7%; in data set [12], 95.2%. The viability at 10 µM in data set [13] was 79.7%. Further, in the data set with cancer cell lines, the “Numbers of inhibitory effect” value worked out at 0. The “inhibition effect on different cancer cell lines (in words)” value with cancer cell lines was “significant inhibition effect”.
For the compound `CNC[C@@H](O)c1ccc(O)c(O)c1` [L-Adrenaline (Epinephrine), L-Adrenaline], the “survival rate (viability) of cancer cells, LoVo” value in data set [1] (Table 3, drug 10 μM, 72 hours) turned out to be 93.6. Further, the “survival rate (viability) of cancer cells, A375” value in [2] (Table 3, drug 10 μM, 72 hours) amounted to 101.9. For the same compound, the “survival rate (viability) of cancer cells, A549” value in [3] (Table 3, drug 10 μM, 72 hours) came to 90.8. In addition, the “survival rate (viability) of cancer cells, HeLa” value in [4] (Table 3, drug 10 μM, 72 hours) was determined as 88.7. Further, in [5] (Table 3, drug 10 μM, 72 hours), the “survival rate (viability) of cancer cells, H1650” value was 76.6. The “survival rate (viability) of cancer cells, HCT116 (WT)” value in [6] (Table 3, drug 10 μM, 72 hours) is 85.0. In the data set with cancer cell lines, the “Numbers of inhibitory effect” value is 0 and the “inhibition effect on different cancer cell lines (in words)” value is recorded as “significant inhibition effect”. In data set [7] (Table 3, drug 10 μM, 72 hours), the “survival rate (viability) of cancer cells, HepG2” value is given as 81.6. The “survival rate (viability) of cancer cells, TSGH” value in data set [8] (Table 3, drug 10 μM, 72 hours) amounted to 64.7. Further, the “survival rate (viability) of cancer cells, MCF7” value in [9] (Table 3, drug 10 μM, 72 hours) is listed as 123.0. Moreover, in data set [10] (Table 3, drug 10 μM, 72 hours), the “survival rate (viability) of cancer cells, AGS” value worked out at 61.1. Moreover, in [11], the “survival rate (viability) of cancer cells, HL-60” value was 101.8. In addition, in data set [12] (Table 3, drug 10 μM, 72 hours), the “survival rate (viability) of cancer cells, PC3” value came out at 106.0. Moreover, in data set [13] (Table 3, drug 10 μM, 72 hours), the “survival rate (viability) of cancer cells, MKN-45” value came out at 69.4.
Regarding `CC(=O)NS(=O)(=O)c1ccc(N)cc1` [sulfacetamide sodium], the viability at 10 µM in data set [1] came out at 81.8%; in data set [2] it was 64.9%; in data set [3], 70%; in data set [4], 75.9%; in data set [5], 79.8%; in [6], 76.7%. The viability at 10 µM in data set [7] stood at 98.7%; in data set [8], 120%; in data set [9], 110%; in data set [10], 81.4%; in [11] it was 112%; in data set [12], 70.8%. Also, the viability at 10 µM in data set [13] stood at 118%. In addition, the “Numbers of inhibitory effect” value with cancer cell lines is given as 0. For the same compound, the “inhibition effect on different cancer cell lines (in words)” value in the data set with cancer cell lines is on record as “significant inhibition effect”.
For the compound `CO[C@@H]1[C@@H](OC(N)=O)[C@@H](O)[C@H](Oc2ccc3c(O)c(NC(=O)c4ccc(O)c(CC=C(C)C)c4)c(=O)oc3c2C)OC1(C)C` [Novobiocin sodium (Albamycin), Novobiocin sodium], the viability at 10 µM in data set [1] was determined as 87.1%; in [2] it was 93.4%; in data set [3] it was 95.2%; in data set [4], 96.1%; in data set [5], 93.5%; in [6], 116%. The viability at 10 µM worked out at 92% in [7]; 85.3% in data set [8]; 109% in data set [9]; 128% in data set [10]; 123% in [11]; 89% in data set [12]. In [13], the viability at 10 µM came to 84.4%. Further, the “Numbers of inhibitory effect” value in the data set with cancer cell lines amounted to 0. Further, in the data set on cancer cell lines, the “inhibition effect on different cancer cell lines (in words)” value was “significant inhibition effect”.
Consider `CC(=O)O[C@H]1C[C@@H]2CC[C@@H]3[C@H](CC[C@@]4(C)[C@H]3C[C@H]([N+]3(C)CCCCC3)[C@@H]4OC(C)=O)[C@@]2(C)C[C@@H]1[N+]1(C)CCCCC1` [Pancuronium (Pavulon), Pancuronium], for which the viability at 10 µM in data set [1] is 79.8%; in data set [2], 75.4%; in data set [3], 100%; in [4], 83.3%; in data set [5] it was 91.7%; in data set [6], 102%. Besides, the viability at 10 µM in [7] was found to be 92.7%; in data set [8] it was 68.3%; in data set [9], 110%; in data set [10], 120%; in [11] it was 109%; in [12], 108%. Also, in [13], the viability at 10 µM amounted to 95.3%. Moreover, the “Numbers of inhibitory effect” value with cancer cell lines is 0. For the same compound, the “inhibition effect on different cancer cell lines (in words)” value in the data set on cancer cell lines is reported as “significant inhibition effect”.
For the compound `NS(=O)(=O)c1cc2c(cc1Cl)NC(C(Cl)Cl)NS2(=O)=O` (centres unmarked) [Trichlormethiazide (Achletin), Trichlormethiazide], the viability at 10 µM in data set [1] is 107%; in [2], 128%; in data set [3], 106%; in data set [4] it was 85.7%; in data set [5] it was 76.7%; in data set [6], 112%. For the same compound, the viability at 10 µM in data set [7] amounted to 95.1%; in data set [8], 95.6%; in data set [9] it was 64.2%; in [10], 79.3%; in data set [11], 102%; in [12] it was 122%. Also, the viability at 10 µM in data set [13] worked out at 71%. In addition, the “Numbers of inhibitory effect” value in the data set on cancer cell lines was found to be 0. Besides, in the data set with cancer cell lines, the “inhibition effect on different cancer cell lines (in words)” value is on record as “significant inhibition effect”.
Take `CCCNCC(O)COc1ccccc1C(=O)CCc1ccccc1` (centres unmarked) [Propafenone (Rytmonorm), Propafenone]: the viability at 10 µM is 105% in data set [1]; 95.8% in data set [2]; 94.1% in data set [3]; 109% in data set [4]; 92.5% in [5]; 109% in [6]. In addition, the viability at 10 µM in data set [7] came to 86%; in [8], 61.1%; in [9], 120%; in data set [10], 79.8%; in [11], 113%; in [12], 104%. Further, in data set [13], the viability at 10 µM is 84.7%. In addition, the “Numbers of inhibitory effect” value with cancer cell lines was found to be 0.
As to `C#CCN[C@@H]1CCc2ccccc21` [Rasagiline mesylate], the viability at 10 µM in data set [1] was found to be 94%; in data set [2], 76.9%; in data set [3], 91.3%; in data set [4], 88.1%; in data set [5], 71.8%; in data set [6] it was 142%. Further, the viability at 10 µM in data set [7] was 92%; in data set [8], 74.2%; in data set [9], 88.3%; in [10] it was 75.8%; in data set [11] it was 105%; in data set [12], 103%. Moreover, the viability at 10 µM in data set [13] is 87.7%. The “Numbers of inhibitory effect” value in the data set on cancer cell lines was 0. Also, in the data set on cancer cell lines, the “inhibition effect on different cancer cell lines (in words)” value is “significant inhibition effect”.
